Laboratory results taken from US20260216174A1, “TREATMENT OF ER+ BREAST CANCER COMPRISING HOMOLOGOUS RECOMBINATION DEFICIENCY USING PARG INHIBITOR” (IDEAYA BIOSCIENCES, INC., priority 2023, published 2026).
One block for each molecule: values may come before it.

Tests used:
HBCx-34 tumor = experiment: Patient-derived xenograft (PDX) study with HBCx-34; type: in vivo, Athymic Nude-Foxn1^nu mice; details: HBCx-34 PDX
Protocol: Female Athymic Nude-Foxn1^nu mice with an established growing HBCx-34 tumor between 108 and 288 mm^3 were randomized into 4 treatment groups of 10 mice each, according to the groups listed in Table 7A, tumor-bearing mice receive estrogen diluted in drinking water (β-estradiol, 8.5 mg/l), from the date of tumor implant to the end of the study. In Table 7A, the abbreviation “p.o.” refers to oral administration, the abbreviation “QD” refers to administration once a day, and the abbreviation “BID” refers to administration twice a day.
Tumors were measured and mice were weighed twice per week during the experimental period. The tumor volume (mm^3) was estimated using the formula: tumor volume (TV)=a×b2/2, where “a” and “b” were the long and the short diameter of a tumor, respectively. The TVs were used to calculate tumor growth inhibition (TGI, an indicator of antitumor activity) using the formula TGI %: (1−{T/T0/Ct/C0}/1−{C0/Ct})×100 where Tt=median tumor volume of treated at time t, T0=median tumor volume of treated at time 0, Ct=median tumor volume of control at time t and C0=median tumor volume of control at time 0. […] Tumor regression represents tumor volume less than the initial tumor volume on DO.
Female Athymic Nude-Foxn1^nu mice with an established growing HBCx-34 tumor between 108 and 288 mm^3 were randomized into 2 treatment groups of 8 mice each, according to the groups listed in Table 8A, tumor-bearing mice receive estrogen diluted in drinking water (β-estradiol, 8.5 mg/l), from the date of tumor implant to the end of the study. In Table 8A, the abbreviation “p.o.” refers to oral administration, the abbreviation “QD” refers to administration once a day.
Tumors were measured and mice were weighed twice per week during the experimental period. The tumor volume (mm^3) was estimated using the formula: tumor volume (TV)=a×b2/2, where “a” and “b” were the long and the short diameter of a tumor, respectively. The TVs were used to calculate tumor growth inhibition (TGI, an indicator of antitumor activity) using the formula TGI %: (1−{T/T0/Ct/C0}/1−{C0/Ct})×100 where Tt=median tumor volume of treated at time t, T0=median tumor volume of treated at time 0, Ct=median tumor volume of control at time t and C0=median tumor volume of control at time 0. […] Tumor regression represents tumor volume less than the initial tumor volume at DO.

AU565 = experiment: Cellular antiproliferative response, Assay 2 (nuclear dye intensity); type: cell-based; details: Homo sapiens, 240 h; AU565, HR mutant CHEK2, Assay 2, 10-day incubation; read-out: Log10 (IC50) (converted)
Protocol: (§1) Compound A was tested in a cell line panel. Cell lines were grown in RPMI 1640, 10% FBS, 2 mM L-alanyl-L-glutamine, 1 mM Na pyruvate, or a special medium. Cells were seeded into 384-well plates and incubated in a humidified atmosphere of 5% CO2 at 37° C. The following day, Compound A was added by serial dilution in half-log steps from the highest test concentration of 30 μM and assayed over ten concentrations. A time zero untreated cell plate was also generated. At seven days post-seeding, the growth media were replaced, and the plates were re-dosed with the test compound. After a 10-day incubation period, cells were fixed and stained with a fluorescent nuclear dye. Automated fluorescence microscopy was carried out using a Molecular Devices ImageXpress Micro XL high-content imager, and images were collected with a 4× objective. 16-bit TIFF images were acquired and analyzed with MetaXpress 5.1.0.41 software.
(§2) Cell proliferation effects of Compound A was measured using the fluorescent intensity of the incorporated nuclear dye as a percent of the control (POC), where POC=(Ix/I0)×100. Ix=nuclear intensity at concentration x and I0=average nuclear intensity of the untreated vehicle wells. Cellular IC50 was calculated using nonlinear regression to a sigmoidal single-site dose response model. Curve fitting, calculations, and report generation was performed using a custom data reduction engine and MathIQ based software (AIM).

CAL-51 = experiment: as above; type: cell-based; details: Homo sapiens, 240 h; CAL-51, HR mutant BRCA2, CHEK1, Assay 2, 10-day incubation; read-out: Log10 (IC50) (converted)
Protocol: as §1, §2

EFM-19 = experiment: as above; type: cell-based; details: Homo sapiens, 240 h; EFM-19, HR mutant ATM, Assay 2, 10-day incubation; read-out: Log10 (IC50) (converted)
Protocol: as §1, §2

MDA-MB-436 = experiment: as above; type: cell-based; details: Homo sapiens, 240 h; MDA-MB-436, HR mutant BRCA1, Assay 2, 10-day incubation; read-out: Log10 (IC50) (converted)
Protocol: as §1, §2

HCC1428 = experiment: as above; type: cell-based; details: Homo sapiens, 240 h; HCC1428, HR mutant BRCA2, Assay 2, 10-day incubation; read-out: Log10 (IC50) (converted)
Protocol: as §1, §2

HCC1599 = experiment: as above; type: cell-based; details: Homo sapiens, 240 h; HCC1599, HR mutant BRCA2, Assay 2, 10-day incubation; read-out: Log10 (IC50) (converted)
Protocol: as §1, §2

CAL-85-1 = experiment: as above; type: cell-based; details: Homo sapiens, 240 h; CAL-85-1, HR mutant BRCA2, Assay 2, 10-day incubation; read-out: Log10 (IC50) (converted)
Protocol: as §1, §2

HCC1395 = experiment: as above; type: cell-based; details: Homo sapiens, 240 h; HCC1395, HR mutant BRCA1, BRCA2, Assay 2, 10-day incubation; read-out: Log10 (IC50) (converted)
Protocol: as §1, §2

HCC1937 = experiment: as above; type: cell-based; details: Homo sapiens, 240 h; HCC1937, HR mutant BRCA1, Assay 2, 10-day incubation; read-out: Log10 (IC50) (converted)
Protocol: as §1, §2

HCC1954 = experiment: as above; type: cell-based; details: Homo sapiens, 240 h; HCC1954, HR mutant BRCA1, Assay 2, 10-day incubation; read-out: Log10 (IC50) (converted)
Protocol: as §1, §2

HCC1569 = experiment: as above; type: cell-based; details: Homo sapiens, 240 h; HCC1569, HR mutant BRCA2, Assay 2, 10-day incubation; read-out: Log10 (IC50) (converted)
Protocol: as §1, §2

BT-474 = experiment: as above; type: cell-based; details: Homo sapiens, 240 h; BT-474, HR mutant BRCA2, Assay 2, 10-day incubation; read-out: Log10 (IC50) (converted)
Protocol: as §1, §2

IC50 (MDA-MB-436): 52.4 nM | IC50 (HCC1428): 10 nM | IC50 (HCC1599): 1310 nM | IC50 (HCC1395): 30 nM | IC50 (HCC1937): 220 nM | IC50 (HCC1954): 370 nM | IC50 (HCC1569): 80 nM | IC50 (BT-474): 847 nM
Structure (SMILES): C[C@H]1CN(c2cc(S(=O)(=O)NC3(C)CC3)cc3c2cnn3-c2nnc(C(F)F)s2)C[C@H](C)N1 [Compound A, 1-(5-(difluoromethyl)-1,3,4-thiadiazol-2-yl)-4-((3S,5S)-3,5-dimethylpiperazin-1-yl)-N-(1-methylcyclopropyl)-1H-indazole-6-sulfonamide]
Regressions (%) (HBCx-34 tumor; 100 mg/kg QD p.o., Day 45): 100% | TGI (%) D45 (HBCx-34 tumor; 100 mg/kg QD p.o., Day 45): 110% | partial regression (mice) (HBCx-34 tumor; Compound A study, 100 mg/kg): all mice achieving partial regression | IC50 (AU565): 52.3 nM | IC50 (CAL-51): 3530 nM | IC50 (EFM-19): 689 nM | IC50 (CAL-85-1): 100 nM

Structure (SMILES): CC(C)C(=O)N1CCN(c2cc(S(=O)(=O)NC3(C#N)CC3)cc3c2cnn3-c2nnc(C(F)F)s2)C[C@H]1C [Compound B]
Regressions (%) (HBCx-34 tumor; 30 mg/kg QD p.o., Day 35): 10% | TGI (%) D35 (HBCx-34 tumor; 30 mg/kg QD p.o., Day 35): 77% | partial regression (mice) (HBCx-34 tumor; 30 mg/kg once daily): 1/10 | tumor stabilization (HBCx-34 tumor; 30 mg/kg once daily): tumor stabilization for all mice | TGI (%) D35 (HBCx-34 tumor; 100 mg/kg BID p.o. (200 mg/kg/day), Day 35): 106% | Regressions (%) (HBCx-34 tumor; 100 mg/kg BID p.o., Day 35): 80% | Regressions (%) (HBCx-34 tumor; 100 mg/kg QD p.o., Day 35): 80% | TGI (%) D35 (HBCx-34 tumor; 100 mg/kg QD p.o., Day 35): 103% | partial tumor regression (mice) (HBCx-34 tumor; 100 mg/kg once daily): 8/10 | partial tumor regression (mice) (HBCx-34 tumor; 100 mg/kg twice daily (200 mg/kg/day)): 8/10
